Laboratory results reported in the supplement of paper PMC9549728.
Counter-ions that a name gives are not always drawn.

Key:
Assay in all cases: IC50 (viability, PrestoBlue) (log10 nM)
Conditions in all cases: exposure time: 72 h
[1] = tested on: murine normal gastric organoid
Procedure: (§1)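 Murine gastric corpus organoids (normal uninduced; RAS-activated Kras G12D/Tp53 R172H; diffuse Cdh1/Apc loss; WNT-activated Apc loss/Tp53 R172H) were seeded in Matrigel into pre-spotted 384-well plates. The plates held a 196-compound library at 6.7 nM to 25,004 nM (9 doses) and were incubated 72 h. Viability was read by PrestoBlue fluorescence (560/590 nm). IC50 came from non-linear regression (Prism), reported as log10 IC50 in nM, mean of 3 passages x 2 wells.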

[2] = tested on: murine gastric organoid diffuse (Cdh1 fl/fl; Apc fl/fl)
Procedure: as §1

[3] = tested on: murine gastric organoid WNT-activated (Apc fl/fl; Tp53 R172H)
Procedure: as §1

[4] = tested on: murine gastric organoid RAS-activated (Kras G12D; Tp53 R172H)
Procedure: as §1

Structure (SMILES) | IC50 (log10 nM) [1] | IC50 (log10 nM) [2] | IC50 (log10 nM) [3] | IC50 (log10 nM) [4]
O=c1[nH]c(=O)n([C@H]2C[C@H](O)[C@@H](CO)O2)cc1F [Floxuridine] | 2.96 | 3.8 | 1.61 | 3.16
COc1ccc(/C=C\c2cc(OC)c(OC)c(OC)c2)cc1OP(=O)(O)O [Fosbretabulin disodium] | < 0.826 | 2.47 | 1.85 | 2.23
CN(C)c1ccccc1CN1CCCN(Cc2ccccc2N(C)C)C1c1ccncc1 [GANT-61] | 1.27 | 2.53 | 2.6 | 1.22
Cn1nccc1Nc1nccc(-c2ccn([C@H](CO)c3ccc(Cl)c(F)c3)c(=O)c2)n1 [GDC-0994] | 3.71 | 3.23 | 2.88 | 4.35
CC(C)c1cc(-c2n[nH]c(=O)n2-c2ccc3c(ccn3C)c2)c(O)cc1O [Ganetespib] | 1.59 | 1.5 | < 0.826 | 1.59
COc1cc2ncnc(Nc3ccc(F)c(Cl)c3)c2cc1OCCCN1CCOCC1 [Gefitinib] | 1.98 | 2.65 | 2.38 | 4.06
Nc1ccn([C@@H]2O[C@H](CO)[C@@H](O)C2(F)F)c(=O)n1 [Gemcitabine] | 1.23 | 1.53 | 1.74 | 1.54
COC(=O)C[C@](O)(CCCC(C)(C)O)C(=O)O[C@@H]1C(OC)=C[C@]23CCCN2CCc2cc4c(cc2[C@H]13)OCO4 [Homoharringtonine] | 1.91 | 1.82 | 0.956 | 1.56
C=CCc1ccc(O)c(-c2ccc(O)c(CC=C)c2)c1 [Honokiol] | 3.97 | 4.28 | 3.87 | 4.12
CC(C)n1nc(-c2ccc3oc(N)nc3c2)c2c(N)ncnc21 [INK 128] | 1.21 | 1.42 | > 4.4 | 1.45
C=CC(=O)N1CCC[C@@H](n2nc(-c3ccc(Oc4ccccc4)cc3)c3c(N)ncnc32)C1 [Ibrutinib] | 2.2 | 2.53 | 2.48 | 4.23
CC(=O)[C@]1(O)Cc2c(O)c3c(c(O)c2[C@@H](O[C@H]2C[C@H](N)[C@H](O)[C@H](C)O2)C1)C(=O)c1ccccc1C3=O [Idarubicin hydrochloride] | 1.1 | 1.41 | 0.851 | < 0.826
CC(C)C[C@H](NC(=O)CNC(=O)c1cc(Cl)ccc1Cl)B(O)O [Ixazomib (MLN9708)] | 2.8 | 2.51 | 2.6 | 2.12
Cc1cc(Nc2ncc(Cl)c(Nc3ccccc3S(=O)(=O)C(C)C)n2)c(OC(C)C)cc1C1CCNCC1 [LDK378] | 2.84 | 2.8 | 2.55 | 3.08
COC(=O)N[C@@H](C)CNc1nccc(-c2cn(C(C)C)nc2-c2cc(Cl)cc(NS(C)(=O)=O)c2F)n1 [LGX818] | 3.91 | < 0.826 | 2.62 | < 0.826
CS(=O)(=O)CCNCc1ccc(-c2ccc3ncnc(Nc4ccc(OCc5cccc(F)c5)c(Cl)c4)c3c2)o1 [Lapatinib] | 2.54 | 2.84 | 2.43 | 3.12
Cc1ccc(F)c(NC(=O)Nc2ccc(-c3cccc4[nH]nc(N)c34)cc2)c1 [Linifanib] | 3.7 | 4.2 | 3.77 | 3.05
C[C@]1(O)C[C@@H](c2nc(-c3ccc4ccc(-c5ccccc5)nc4c3)c3c(N)nccn32)C1 [Linsitinib] | 2.84 | 3.68 | 2.69 | < 0.826
CNC(=O)[C@@H](NC(=O)[C@H](CC(C)C)[C@H](O)C(=O)NO)C(C)(C)C [Marimastat] | 4.37 | > 4.4 | 4.02 | < 0.826
Cc1ccc(NC(=O)c2ccc(CN3CCN(C)CC3)cc2)cc1Nc1nc(-c2cccnc2)cs1 [Masitinib mesylate] | 3.68 | 4.25 | 3.35 | 2.38
N[C@@H](Cc1ccc(N(CCCl)CCCl)cc1)C(=O)O [Melphalan] | 3.09 | 3.34 | 2.26 | 3.27

Structure (SMILES) | IC50 (log10 nM) [1] | IC50 (log10 nM) [2] | IC50 (log10 nM) [3] | IC50 (log10 nM) [4]
CN(Cc1cnc2nc(N)nc(N)c2n1)c1ccc(C(=O)N[C@@H](CCC(=O)O)C(=O)O)cc1 [Methotrexate] | 3.41 | > 4.4 | 4.36 | 3.43
CO[C@@]12[C@H](COC(N)=O)C3=C(C(=O)C(C)=C(N)C3=O)N1C[C@@H]1N[C@@H]12 [Mitomycin C] | 2.64 | 2.68 | 2.7 | 2.5
O=C1c2c(O)ccc(O)c2C(=O)c2c(NCCNCCO)ccc(NCCNCCO)c21 [Mitoxantrone dihydrochloride] | 2.13 | 2.41 | 3.38 | 2.2
CCOc1cc2ncc(C#N)c(Nc3ccc(OCc4ccccn4)c(Cl)c3)c2cc1NC(=O)/C=C/CN(C)C [Neratinib] | 2.48 | 3.13 | 2.94 | > 4.4
Cc1sc2c(c1C)C(c1ccc(Cl)cc1)=N[C@@H](CC(=O)Nc1ccc(O)cc1)c1nnc(C)n1-2 [OTX-015] | 2.22 | 2.47 | 2.85 | 3.11
COC1=CC(c2cc3ccccc3[nH]2)=N/C1=C\c1[nH]c(C)cc1C [Obatoclax] | 2.31 | 3.06 | 2.26 | 2.81
C=CC(=O)Nc1cc(Nc2nccc(-c3cn(C)c4ccccc34)n2)c(OC)cc1N(C)CCN(C)C [Osimertinib] | 2.73 | 3.05 | 2.46 | 3.89
C1=N/C2=N/c3ccc(OCCN4CCCC4)c(c3)COC/C=C/COCc3cccc(c3)C(=C1)N2 [Pacritinib] | 3.23 | 3.48 | 2.91 | 3.76
CC(=O)c1c(C)c2cnc(Nc3ccc(N4CCNCC4)cn3)nc2n(C2CCCC2)c1=O [Palbociclib] | 4.24 | 4.37 | 4.13 | 4.07
Cc1[nH]c2ccccc2c1CCNCc1ccc(/C=C/C(=O)NO)cc1 [Panobinostat] | 3.17 | 2.82 | 3.02 | 1.81
Cc1ccc(Nc2nccc(N(C)c3ccc4c(C)n(C)nc4c3)n2)cc1S(N)(=O)=O [Pazopanib] | 4.21 | 1.42 | > 4.4 | > 4.4
CCCCCCCCCCCCCCCCCCOP(=O)([O-])OC1CC[N+](C)(C)CC1 [Perifosine] | < 0.826 | > 4.4 | 1.16 | < 0.826
Cc1ccc(C(=O)Nc2ccc(CN3CCN(C)CC3)c(C(F)(F)F)c2)cc1C#Cc1cnc2cccnn12 [Ponatinib] | 3.04 | 3.08 | 1.71 | 3.27
CC(C)(C)c1cc(NC(=O)Nc2ccc(-c3cn4c(n3)sc3cc(OCCN5CCOCC5)ccc34)cc2)no1 [Quizartinib] | 3.06 | 3.09 | 2.01 | < 0.826
COc1cc(Nc2ncc(F)c(Nc3ccc4c(n3)N(COP(=O)(O)O)C(=O)C(C)(C)O4)n2)cc(OC)c1OC [R788 disodium hexahydrate] | 3.46 | 2.99 | 2.5 | 3.21
Cn1nccc1Nc1nccc(-c2ccn([C@H](CO)c3ccc(Cl)c(F)c3)c(=O)c2)n1 [Ravoxertinib] | 3.18 | > 4.4 | 3.44 | 3.74
CNC(=O)c1cc(Oc2ccc(NC(=O)Nc3ccc(Cl)c(C(F)(F)F)c3)c(F)c2)ccn1 [Regorafenib] | 3.94 | 3.97 | 3.86 | 4.14
CC1=C(/C=C/C(C)=C/C=C/C(C)=C/C(=O)O)C(C)(C)CCC1 [Retinoic acid] | > 4.4 | > 4.4 | 3.82 | 0.928
COc1cc(OC)c(/C=C/S(=O)(=O)Cc2ccc(OC)c(NCC(=O)O)c2)c(OC)c1 [Rigosertib sodium] | 1.86 | 1.55 | 2.01 | 1.35
C/C=C1\NC(=O)[C@H]2CSSCC/C=C/[C@H](CC(=O)N[C@H](C(C)C)C(=O)N2)OC(=O)[C@H](C(C)C)NC1=O [Romidepsin] | < 0.826 | 0.852 | 0.997 | < 0.826
